Measured values as given in PubChem BioAssay (NCI).
“And” between values parts separate entries of the source, which are not always exact repeats. Equal entries are not always repeated.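 Protocol summary: plate cells (96-well), add compound at 5 concentrations, incubate 48 h, interpolate endpoints linearly. Here, GI50 denotes the concentration required for 50% inhibition of growth. TGI marks complete inhibition of growth.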

What follows are compounds tested on SF-268 CNS (assay: NCI tumour cell line growth inhibition, 48 h).
With `COc1ccccc1C(=O)c1ccc2ccccc2c1` the TGI was > 100 µM.
In the case of `CS(=O)(=O)Nc1ccc(-c2ccc3c(NC(=O)C4CC4)n[nH]c3c2)cc1`, the GI50 was > 25 µM and the TGI was > 25 µM.
Compound `C=C1C(=O)O[C@H]2[C@H]1CC/C(COC(=O)c1cc3cc(OC)ccc3[nH]1)=C\CC[C@@]1(C)O[C@@H]21` has a GI50 of 1.66 µM and a TGI of 3.65 µM.
`COCC(=O)OC1CCn2c1nc1c2C(=O)C(C)=C(NC(C)=O)C1=O` (stereo not drawn) was tested, and the GI50 was 3.07 µM and the TGI was 9 µM and 22.4 µM.
`COc1ccc(C2C(C#N)=C(N)OC3=C2CCCc2ccc(F)cc23)cc1OC` (stereo not drawn) gave a GI50 of 20.1 µM and a TGI of 48.5 µM.
In the case of `Nc1ccc(SC23CC4CC(CC(C4)C2)C3)cc1`, the TGI was > 100 µM.
For `CCOC(=O)[C@@H](C)C[C@H](Cc1ccccc1)NC(=O)c1csc([C@@H](C[C@H](C(C)C)N(C)C(=O)[C@@H](NC(=O)[C@H]2CCCCN2C)C(C)(C)C)OC(C)=O)n1`, the GI50 was < 0.00167 µM and the TGI was > 16.7 µM.
`COc1ccc2c(c1)C=CC(C#N)N2C(=O)c1ccccc1` (stereo not drawn) was tested, and the GI50 was 0.488 µM and the TGI was > 100 µM.

Each compound was assayed on KM12 colon (assay: NCI tumour cell line growth inhibition, 48 h).
With `CCCSc1cc(Cl)nc(N)n1` the GI50 was > 100 µM and the TGI was > 100 µM.
Work on `CN1CCN(Cc2ccc(NC(=O)c3ccc(C(C)(C)C)c(C#Cc4cnc5cccnn45)c3)cc2C(F)(F)F)CC1` yielded a GI50 of 0.861 µM and a TGI of 2.38 µM.
In the case of `C=CC(=O)N1CCN(c2ncnc3c(F)c(-c4c(O)cccc4F)c(Cl)cc23)CC1`, the GI50 was 11.7 µM and the TGI was 28 µM.
Work on `C=CCOc1c(Br)cc(Br)cc1Br` yielded a GI50 of 14.1 µM and a TGI of 45.7 µM.
For `CC(=O)n1c(-c2ccc(Cl)cc2)nc2c(c1=O)C(c1ccc(Cl)cc1)c1sc3c(Cl)cccc3c1O2` (stereo not drawn), the GI50 was 0.433 µM and the TGI was 1.78 µM.
`CN(C)CCNC(=O)Nc1c(C#N)[n+]([O-])c2cc(Cl)c(Cl)cc2[n+]1[O-]` showed a GI50 of 13.3 µM and a TGI of 43.1 µM.
`COc1ccccc1C(=O)c1ccc2ccccc2c1` was tested, and the TGI was 33.2 µM.
With `CS(=O)(=O)Nc1ccc(-c2ccc3c(NC(=O)C4CC4)n[nH]c3c2)cc1` the GI50 was > 16.2 µM and the TGI was > 25 µM.
Compound `C=C1C(=O)O[C@H]2[C@H]1CC/C(COC(=O)c1cc3cc(OC)ccc3[nH]1)=C\CC[C@@]1(C)O[C@@H]21` has a GI50 of 1.54 µM and a TGI of 3.33 µM.
`COCC(=O)OC1CCn2c1nc1c2C(=O)C(C)=C(NC(C)=O)C1=O` (stereo not drawn) gave a TGI of 30.5 µM.
In the case of `COc1ccc(C2C(C#N)=C(N)OC3=C2CCCc2ccc(F)cc23)cc1OC` (stereo not drawn), the GI50 was 19.1 µM and the TGI was 43.6 µM.
`Nc1ccc(SC23CC4CC(CC(C4)C2)C3)cc1` was tested, and the TGI was > 100 µM.
With `CCOC(=O)[C@@H](C)C[C@H](Cc1ccccc1)NC(=O)c1csc([C@@H](C[C@H](C(C)C)N(C)C(=O)[C@@H](NC(=O)[C@H]2CCCCN2C)C(C)(C)C)OC(C)=O)n1` the GI50 was < 0.00167 µM and the TGI was 0.215 µM.
For `COc1ccc2c(c1)C=CC(C#N)N2C(=O)c1ccccc1` (stereo not drawn), the GI50 was < 0.01 µM and the TGI was > 100 µM.

What follows are compounds tested on NCI/ADR-RES ovarian (assay: NCI tumour cell line growth inhibition, 48 h).
In the case of `CCCSc1cc(Cl)nc(N)n1`, the GI50 was > 100 µM and the TGI was > 100 µM.
In the case of `CN1CCN(Cc2ccc(NC(=O)c3ccc(C(C)(C)C)c(C#Cc4cnc5cccnn45)c3)cc2C(F)(F)F)CC1`, the GI50 was 2.34 µM and the TGI was 5.86 µM.
With `C=CC(=O)N1CCN(c2ncnc3c(F)c(-c4c(O)cccc4F)c(Cl)cc23)CC1` the GI50 was 22.1 µM and the TGI was 76.1 µM.
With `C=CCOc1c(Br)cc(Br)cc1Br` the GI50 was 17.3 µM and the TGI was > 100 µM.
`CC(=O)n1c(-c2ccc(Cl)cc2)nc2c(c1=O)C(c1ccc(Cl)cc1)c1sc3c(Cl)cccc3c1O2` (stereo not drawn) showed a GI50 of 0.292 µM and a TGI of 1.01 µM.
With `CN(C)CCNC(=O)Nc1c(C#N)[n+]([O-])c2cc(Cl)c(Cl)cc2[n+]1[O-]` the GI50 was > 100 µM and the TGI was > 100 µM.
`COc1ccccc1C(=O)c1ccc2ccccc2c1` was tested, and the TGI was > 100 µM.
For `CS(=O)(=O)Nc1ccc(-c2ccc3c(NC(=O)C4CC4)n[nH]c3c2)cc1`, the GI50 was > 25 µM and the TGI was > 25 µM.
`C=C1C(=O)O[C@H]2[C@H]1CC/C(COC(=O)c1cc3cc(OC)ccc3[nH]1)=C\CC[C@@]1(C)O[C@@H]21` gave a GI50 of 1.68 µM and a TGI of 4.9 µM.
In the case of `COCC(=O)OC1CCn2c1nc1c2C(=O)C(C)=C(NC(C)=O)C1=O` (stereo not drawn), the GI50 was 6.89 µM and the TGI was 22.3 µM.
With `COc1ccc(C2C(C#N)=C(N)OC3=C2CCCc2ccc(F)cc23)cc1OC` (stereo not drawn) the GI50 was 16.6 µM and the TGI was 43.9 µM.
`Nc1ccc(SC23CC4CC(CC(C4)C2)C3)cc1` was tested, and the TGI was > 100 µM.
`CCOC(=O)[C@@H](C)C[C@H](Cc1ccccc1)NC(=O)c1csc([C@@H](C[C@H](C(C)C)N(C)C(=O)[C@@H](NC(=O)[C@H]2CCCCN2C)C(C)(C)C)OC(C)=O)n1` showed a GI50 of 0.00542 µM.
For `COc1ccc2c(c1)C=CC(C#N)N2C(=O)c1ccccc1` (stereo not drawn), the GI50 was < 0.0464 µM.
